The values below come from a melting point compilation (Tetko et al.; mined from patent text by program, amines drawn as free bases though some values may be those of a salt).

One may read the melting point as the temperature of the solid-liquid transition.

As to `COc1ccc(CSc2nnc(-c3ccnc(NC(=O)OC(C)(C)C)c3)o2)cc1F`, the melting point lay in the range of 244 to 245 °C.
With `CCCCCCCCC1C(=O)NC(=O)N1CCCCCCC(=O)OCC` (stereo not given) the figure was 68 to 70 °C; with `COc1ccc(C2(COC(C)=O)CCC(=O)CC2)cc1`, 86.5 to 88 °C.
The value for `O=C(Nc1ncco1)C1c2ccccc2Oc2ccccc21` was 232 to 235 °C; that for `CC(=O)C=Cn1sc(Cl)cc1=O` was 137 to 139 °C; that for `CCCCOc1cc(CO)cc(N)c1Cc1ccccc1` was 105 to 107 °C.
`CN(C)c1ccc(Cn2cnc3c(Cl)ncnc32)cc1` came in with a melting point of 125 to 127 °C.
As for `COc1cc2c(cn1)OCC21C(=O)Nc2ccccc21` (stereo not given), the melting point is 231 to 232 °C.
`CCOC(=O)c1cn(Cc2ccccc2OC)c2sc(-c3ccc(NC(C)=O)cc3)c(CN(C)Cc3ccccc3)c2c1=O` yielded a melting point of 161 to 163 °C.
The value for `CN(C)C(=Cc1ccccc1[N+](=O)[O-])C(=O)CBr` was 125 to 127 °C.
The value for `OCc1cccc2nnsc12` was 79 to 81 °C; that for `Cc1ccc(C=Cc2csc3ccccc23)s1` was 62 to 64 °C.
The value for `CCC1(CO)COC2(CC(c3ccc(Cl)cc3)SC(c3ccc(Cl)cc3)C2)OC1` (stereo not given) was 138 °C.
Regarding `N#Cc1nn(-c2ccccc2)c(OC(F)F)c1CO`, the melting point fell in the range of 71 to 72 °C.
The compound `CC(C)(C)c1cc(C(O)c2ccccc2)cc(C(C)(C)C)c1O` (stereo not given) had a melting point of 117 to 119 °C.
The value for `Cc1cc2c(cc1Sc1ccc(C(=O)Nc3ccc(O)cc3)cc1)C(C)(C)CCC2(C)C` was 236 to 237 °C; that for `CCCCCCCCCOC1C(O)C(CO)OC1n1cnc2c(=O)[nH]c(NC(=O)C(C)C)nc21` (stereo not given) was 168 to 169 °C.
The value for `Nc1ccc(C(=O)OCc2ccccc2)c(F)n1` was 92 to 94 °C.
The value for `C1COCCOCCNCCOCCOCCOCCN1` was 0 °C; that for `CC(=O)c1ccc2c(c1)C(C)(C)CC(=O)N2C` was 75 to 77 °C; that for `CC#Cc1cn(C2OC(COC(C)=O)C(OC(C)=O)C2OC(C)=O)c(=O)[nH]c1=O` (stereo not given) was 150 to 157 °C.
Take `CCCCCCCCCCCCCCCCCCOc1cc(C(=O)OC)cc(C(=O)N(CC(=O)OCC)CC(=O)OCC)c1`: the melting point lay in the range of 57 to 60 °C.
With `COC(=O)c1ccc(Cl)cc1-n1c(CCl)nc2ccccc2c1=O` the figure was 155 to 157 °C.
As to `CNC(=O)N1CCc2[nH]cnc2C1C1CCCCC1` (stereo not given), the melting point stood at 250 °C.
`CC(=O)Oc1ccccc1N1CCN(CCCNC(=O)c2cccc3c(=O)c(C)c(-c4ccccc4)oc23)CC1` returned a melting point of 120 to 123 °C.
For `COP(=O)(Cc1ccc(-c2nc3ccccc3s2)nc1)OC`, the melting point was 152 °C.
Take `CC(=O)NC[C@H]1CN(c2ccc(C(=O)c3cnc4ccc(F)cn34)cc2)C(=O)O1`: the melting point lay in the range of 224 to 226 °C.
With `O=[N+]([O-])c1cccc(Oc2cncc(Cl)n2)c1` the figure was 118 to 119 °C; with `COc1cc2c(cc1-c1cnccn1)-c1c(-c3cncs3)c3c(n1CC2)C(=O)N(C(C)(C)C)CCCOC3`, 235 to 236 °C.
Compound `Cc1cccc(C2CCCCS2=O)n1` (stereo not given) yielded a melting point of 100 °C.
With `CCCCCCCCCCCCCCCC(=O)OC1CN(C)C2(C1)C1CC3CC(C1)CC2C3` (stereo not given) the figure was 50 to 53 °C.
The value for `COC(=O)c1ccc(-c2nc(-c3ccc(Cl)cc3)no2)c([N+](=O)[O-])c1` was 189 to 190 °C; that for `COc1cc(C)ccc1C(=O)O` was 103 to 104 °C; that for `Cc1nc(N)nc(N)c1CCC(C)c1cccc(-c2ccc(C(F)(F)F)cc2)c1` (stereo not given) was 67 to 68 °C.
The value for `Cc1cccc(-c2nc3cccnn3c2-c2ccnc(N)n2)c1` was 250 to 251 °C; that for `O=C(Nc1ccc(F)cc1)N[C@H]1CCCN(C(=O)c2ccc(F)cc2)C1` was 228 to 231 °C; that for `CCOC(=O)C1=Nc2cc3c(c(C)c2=C1C)N=c1ccc(C#N)cc1=3` was > 240 °C.
For `CN(C)c1ccc(C2N(c3ccccc3)CCN2c2ccccc2)c(O)c1`, the melting point was in the range of 161 to 165 °C.
With `CC(C)COCCOc1ccc(OCC(O)CNCCNC(=O)N2CCOCC2)cc1` (stereo not given) the figure was 95 to 96 °C; with `CC(C)Oc1cccc(C2(C)CN(C)CCC2O)c1` (stereo not given), 75 to 76 °C; with `ClC1=NCc2ccccc2SC1`, 164 to 168 °C.
With `C=CCn1c(=Nc2ccccc2)sc2ncccc2c1=O` the figure was 94 to 95 °C.
As for `N#Cc1cc(Sc2ccc(Cl)c(Cl)c2)ccc1[N+](=O)[O-]`, the melting point was in the range of 136 to 138 °C.
The value for `CCCCC(C)(C)C(O)CCN1C(=O)NC(=O)C1CCCCCCC(=O)O` (stereo not given) was 90 to 98 °C; that for `O=C(c1cc(=O)c2cc(O)ccc2[nH]1)N1CCC(COc2ccccc2)CC1` was 130 °C.
With `CCCCCCCCc1c(CCCCCCCC)c(-c2ccccc2)n(-c2ccc(C)cc2)c1-c1ccccc1` the figure was 100 to 101 °C; with `CSc1cc(CCC(=O)OC(C)(C)C)cc(-c2nc(=O)c3ccccc3s2)n1`, 126 °C; with `Cc1nc(O)cc(C2(c3ccc(Cl)cc3)CCC2)n1`, 130 to 140 °C.
In turn, `COc1ccc(C#CCO)c2c1c(CCN(C)C)cn2C` registered a melting point of 101 to 104 °C.
With `O=C(CCc1ccccc1)N[C@H](Cc1ccc(C(F)(F)F)cc1)[C@@H](O)c1ccc(F)c(F)c1` (racemic) the figure was 114 to 115 °C; with `O=C(NCCCc1cccc2oc(CCCCc3ccccc3)cc12)C1CC1`, 70 to 71 °C.
As for `CC1(C)CC(NC(=O)c2ccccc2)CC(C)(C)N1CC#N`, the melting point was determined as 182 °C.
The value for `CCCCCc1c(C(C)C)nc(C(C)C)c(CO)c1-c1cccc(O)c1` was 121 to 122 °C; that for `CC(=Cc1ccc(O)cc1)c1ccc2c(c1)C(C)(C)CC2(C)C` was 137 °C.
With `Clc1cc(Nc2ccccc2)c2nc[nH]c2n1` the figure was > 300 °C.
The value for `COc1c(I)cc(-c2c3ccccc3cc3sc4ccccc4c23)cc1I` was 228 to 230 °C; that for `CCc1cc(-n2cncn2)ncn1` was 75 to 76 °C.
The compound `CCOC(=O)c1cn2c(ccc3ccc(OC)cc32)n1` yielded a melting point of 146 to 148 °C.
The value for `O=S(=O)(Nc1ccc(Br)cc1)C(F)(F)F` was 52 to 54 °C.
For `Cc1c(I)nc2n1CCc1ccccc1C2OC1CCN(C)CC1` (stereo not given), the melting point stood at 59 °C.
In the case of `Clc1ccc2c(c1)C(c1ccccc1Cl)=NCc1nccn1-2`, the melting point was 179 to 180 °C.
With `O=[N+]([O-])c1cn2c(n1)OC[C@@H](OCC#Cc1ccc(Br)cc1)C2` the figure was 160 to 162 °C; with `COC(=O)c1scc(-c2ccccc2)c1-c1ccc(S(=O)O)c(F)c1`, 133 °C.
Turning to `CCCC(C)Oc1ccc(C(=O)O)cc1` (stereo not given), the melting point lay in the range of 67 to 68.8 °C.
With `Cc1cc2c(C)c(O)c(O)c(C(=O)O)c2cc1Cc1ccccc1` the figure was 179 to 180 °C.
In turn, `CSc1nn2c(N3CCN(C)CC3)nc(C)nc2c1S(=O)(=O)c1ccccc1` came in with a melting point of 169 to 171 °C.
The value for `CS(=O)(=O)C(=C1CN(C(c2ccccc2)c2ccccc2)C1)c1cccc(C(F)(F)F)c1` was 178 °C.
The value for `COc1cccc(CNC(=O)c2nc3ccc(SC)cc3c(=O)[nH]2)c1` was 168 to 170 °C.
`Cc1nc2ccccn2c(=O)c1CCN1CCC(Nc2nc3ccccc3n2Cc2cnccn2)CC1` returned a melting point of 204 °C.
`COc1cc(OC)c(-c2cccs2)cc1/C=C/C(=O)c1ccc(S(=O)(=O)NCCCn2ccnc2)cc1` returned a melting point of 160 to 162 °C.
The value for `Cc1cc2c(c3ccc(=O)[nH]c13)OC(CNC(=O)CCNC(=O)OCc1ccccc1)C2` (stereo not given) was 233 to 234 °C; that for `COc1cc(C=O)c(F)cc1Cl` was 120 to 122 °C.
With `O=C1CCCN1C(=O)Oc1cccc(Br)c1` the figure was 95 to 96 °C.
With `COC(=O)C1Cc2c([nH]c3ccccc23)C(c2ccccc2)N1` (stereo not given) the figure was 217 to 218 °C; with `CCc1nn(CCO)c(CC)c1C(=O)c1cc(Cl)cc(Cl)c1`, 134 °C.
`CC(=O)n1c(=O)n(CCN2CCC(C(=O)c3ccc(F)cc3)CC2)c(=O)c2ccsc21` returned a melting point of 137 to 141 °C.
The value for `C1=CCC(OC2=CC=CC2)=C1` was 74 °C; that for `CCCn1c(=O)cc(S(=O)(=O)CCC)n(Cc2ccc(-c3ccccc3-c3nnn[nH]3)cc2)c1=O` was 128 to 135 °C; that for `COCCc1nc2c(N)nc3cc(OCc4ccccc4)ccc3c2n1CCCCNS(C)(=O)=O` was 144 to 148 °C.
With `CCCc1c(OCC(=O)OC)ccc2c1OC(CCCCCCO)CC2=O` (stereo not given) the figure was 93 to 94.5 °C; with `COC(=O)c1nc(-c2ccc([Si](C)(C)C)cc2F)c(F)c(N)c1OC`, 127 to 129 °C; with `CCCCCCCCCCCCC(C)CNc1cc(C)c([N+](=O)[O-])cc1C(N)=O` (stereo not given), 117 to 119 °C.
With `O=C(O)c1cc(NCc2c(F)c(F)c(C(F)(F)F)c(F)c2F)ccc1O` the figure was 179 °C; with `C[C@@H](CO)Cn1c(C(=O)NCc2cc(C(F)(F)F)cc(C(F)(F)F)c2)c(-c2ccccc2)c2cccnc2c1=O`, 101 to 103 °C; with `Cc1ccc(CCCO)c(NCc2ccc3nc(NCCCN4CCOCC4)n(Cc4cccc5c4ncn5C)c3c2)c1`, 198 °C.
The compound `NC(=O)c1cc2cc(C(O)(C(F)(F)F)C(F)(F)F)ccc2[nH]1` showed a melting point of 262 to 263 °C.
With `CC1(C)C(=O)Nc2ccc(NC(=O)c3ccncc3)cc21`, the melting point was > 300 °C.
`COC(=O)c1ccc(Cc2cc3cc(Cl)ccc3[nH]2)cc1` came in with a melting point of 118 °C.
With `COc1cccc2c(N3CCNCC3)cc(C(F)(F)F)nc12` the figure was 130 °C; with `COc1ccc(NC(=O)N(Cc2ccccc2)Cc2cccnc2)c(NC(=O)c2cc(C(C)(C)C)c(O)c(C(C)(C)C)c2)c1`, 120 to 128 °C.
